Legend:
[1] = test system: cutaneous and/or mucosal toxicity induced by anti-EGFR drugs; assay: administration of lycopene to patients treated with anti-EGFR drugs; type: in vivo
From the text: The regression has been so significant that patients, who could not shave the beard before the treatment with lycopene, could perform normal shaving after 2 weeks from the daily administration of lycopene.

[2] = cited from earlier work
[3] = patients affected by paronychia due to anti-EGFR drugs
[4] = dosage of treatment group A (6.5 mg tablets, 3 tablets/day)

CC(C)=CCC/C(C)=C/C=C/C(C)=C/C=C/C(C)=C/C=C/C=C(C)/C=C/C=C(C)/C=C/C=C(\C)CCC=C(C)C [lycopene]
regression of pustular injuries ([1]; male patients of age between 35 and 55 years treated with anti-EGFR drugs, already presenting pustular injuries): significant regression | time from daily administration until normal shaving possible ([1]; male patients who could not shave the beard before treatment, daily administration): 2 weeks | functional ability of hand fingers [1, 3]: recover the lost functional ability | nail growth and strength [1, 3]: recover the normal nail growth and strength | pain condition in paronychia [1, 3]: improvement of the pain condition | inflammation of paronychia ([1]; patients affected by paronychia due to anti-EGFR drugs with functional disabling of the hand fingers): resolution of the inflammation | regression of the rosiness (diffuse erythema of the face) ([1]; patients treated with anti-EGFR drugs): significant regression of the rosiness | onset/extension of rosiness coloration ([1]; some patients not yet affected by erythema): delayed and/or decreased the extension of such coloration | side effects during chronic intake ([2]; chronic intake, several studies): absence of relevant side effects | observed safe level of intake (OSL) ([2]; chronic intake): up to 75 mg/day | antioxidant effects at the trial dosage [2, 4]: significant antioxidant effects | side effects at the trial dosage [2, 4]: not to have relevant side effects
